Calls of active or inactive are those of the source. No cut-off for these calls is given here.
What was measured:
NCI-H441 [1] = assay: Cytotoxicity against human H441 cells after 72 hrs by trypan blue cell exclusion assay; assay type: functional, cell-based
NCI-H441 [2] = assay: Cytotoxicity against human H441 cells by serum lactate dehydrogenase assay; assay type: functional, cell-based
[3] = Cytotoxicity in human H441 cells at 2 uM after 72 hrs by trypan blue cell exclusion assay; assay type: functional, NCI-H441
NCI-H441 [4] = assay: Cytotoxicity against human H441 cells by glucosaminidase assay; assay type: functional, cell-based

Question: Which Activity (NCI-H441 [1]) does the source give for `Nc1ccn([C@@H]2O[C@H](CO)[C@@H](O)[C@@H]2O)c(=O)n1` [CYTARABINE] here?
Answer: Dose-dependent effect

Question: And the Activity (NCI-H441 [2])?
Answer: Active

Question: And the Activity [3]?
Answer: 55%

Question: And the Activity (NCI-H441 [4])?
Answer: Active

Question: For `NNc1ccc(C(=O)Nc2ccn([C@@H]3O[C@H](CO)[C@@H](O)[C@@H]3O)c(=O)n2)cn1`, which Activity (NCI-H441 [1]) is on record?
Answer: Dose-dependent effect

Question: And the Activity (NCI-H441 [2])?
Answer: Active

Question: And the Activity [3]?
Answer: 55%

Question: And the Activity (NCI-H441 [4])?
Answer: Active

Reference: ChEMBL document CHEMBL1154024, “Synthesis of radiolabeled cytarabine conjugates” (2009)
